Source: paper PMC11314561, “Design and Synthesis of Novel Aminoindazole-pyrrolo[2,3-b]pyridine Inhibitors of IKKα That Selectively Perturb Cellular Non-Canonical NF-κB Signalling” (Molecules, 2024)

Legend:
Test in all cases: kinase panel
Assay type in all cases: biochemical
MINK(h) = MINK(h) (Homo sapiens, UniProt Q8N4C8)
Text: (§1) We profiled three compounds from the series across the kinome (Table S1).
(§2) Ta b l e S1. The % inhibition of compounds 4, 5r [SU1261], and 6g [SU1349] against a
(§3) panel of kinase enzymes. We proϐiled three compounds from the series across 231
(§4) kinases. For SU1349, given its structural similarity with SU1261, we selected 98 from the
(§5) Tested kinase % inhibiƟon

IRAK1(h) = IRAK1(h) (Homo sapiens, UniProt P51617)
Chain of IRAK1(h) (P51617 whole entry): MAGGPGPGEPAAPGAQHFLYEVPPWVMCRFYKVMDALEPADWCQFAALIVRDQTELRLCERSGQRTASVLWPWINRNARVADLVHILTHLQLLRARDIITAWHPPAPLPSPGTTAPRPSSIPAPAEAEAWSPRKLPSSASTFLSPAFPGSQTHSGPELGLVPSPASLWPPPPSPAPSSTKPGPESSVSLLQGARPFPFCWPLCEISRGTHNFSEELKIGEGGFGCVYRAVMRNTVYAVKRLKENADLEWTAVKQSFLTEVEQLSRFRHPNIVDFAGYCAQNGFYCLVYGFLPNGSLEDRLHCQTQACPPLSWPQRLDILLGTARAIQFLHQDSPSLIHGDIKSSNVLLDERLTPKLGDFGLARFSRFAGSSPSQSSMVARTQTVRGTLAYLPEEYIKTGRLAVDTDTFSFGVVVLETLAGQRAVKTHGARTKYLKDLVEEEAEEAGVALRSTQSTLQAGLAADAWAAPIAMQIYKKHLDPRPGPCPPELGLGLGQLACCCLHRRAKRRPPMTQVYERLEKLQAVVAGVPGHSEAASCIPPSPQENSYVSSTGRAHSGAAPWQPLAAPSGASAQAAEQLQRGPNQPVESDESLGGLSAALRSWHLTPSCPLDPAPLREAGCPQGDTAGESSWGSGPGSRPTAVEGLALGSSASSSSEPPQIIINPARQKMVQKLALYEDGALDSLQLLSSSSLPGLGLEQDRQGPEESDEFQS
Text: as §1, §2, §3, §4, §5

CaMKIδ(h) = CaMKIδ(h) (Homo sapiens, UniProt Q8IU85)
Chain of CaMKIδ(h) (Q8IU85 whole entry): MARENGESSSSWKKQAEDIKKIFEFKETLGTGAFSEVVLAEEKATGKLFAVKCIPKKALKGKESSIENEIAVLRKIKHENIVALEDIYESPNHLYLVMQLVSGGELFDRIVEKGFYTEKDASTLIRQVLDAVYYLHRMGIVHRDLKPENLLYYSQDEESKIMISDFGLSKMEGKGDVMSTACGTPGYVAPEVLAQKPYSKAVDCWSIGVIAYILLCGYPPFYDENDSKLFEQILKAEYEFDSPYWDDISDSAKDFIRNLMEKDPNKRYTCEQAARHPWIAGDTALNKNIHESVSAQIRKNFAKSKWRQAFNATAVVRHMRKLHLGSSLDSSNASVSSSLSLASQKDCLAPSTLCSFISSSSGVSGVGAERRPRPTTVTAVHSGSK
Text: as §1, §2, §3, §4, §5

Ret(h) = Ret(h) (Homo sapiens, UniProt P07949)
Text: as §1, §2, §3, §4, §5

MKK7β(h) = molecular target: T1, MKK7β(h) (Homo sapiens, UniProt O14733)
T1 sequence (O14733 1-419): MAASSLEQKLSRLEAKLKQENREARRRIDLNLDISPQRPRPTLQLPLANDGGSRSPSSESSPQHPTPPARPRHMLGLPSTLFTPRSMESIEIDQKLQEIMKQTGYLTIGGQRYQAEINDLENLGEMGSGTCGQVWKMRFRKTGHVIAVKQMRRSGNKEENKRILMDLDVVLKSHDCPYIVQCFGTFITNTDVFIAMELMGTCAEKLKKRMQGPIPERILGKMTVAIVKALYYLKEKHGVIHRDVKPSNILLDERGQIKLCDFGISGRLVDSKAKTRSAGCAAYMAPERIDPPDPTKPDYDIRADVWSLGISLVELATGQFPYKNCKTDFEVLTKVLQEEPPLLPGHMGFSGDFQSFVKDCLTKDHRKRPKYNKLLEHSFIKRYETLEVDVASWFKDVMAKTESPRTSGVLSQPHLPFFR
Text: as §1, §2, §3, §4, §5

CLK2(h) = CLK2(h) (Homo sapiens, UniProt P49760)
Chain of CLK2(h) (P49760 whole entry): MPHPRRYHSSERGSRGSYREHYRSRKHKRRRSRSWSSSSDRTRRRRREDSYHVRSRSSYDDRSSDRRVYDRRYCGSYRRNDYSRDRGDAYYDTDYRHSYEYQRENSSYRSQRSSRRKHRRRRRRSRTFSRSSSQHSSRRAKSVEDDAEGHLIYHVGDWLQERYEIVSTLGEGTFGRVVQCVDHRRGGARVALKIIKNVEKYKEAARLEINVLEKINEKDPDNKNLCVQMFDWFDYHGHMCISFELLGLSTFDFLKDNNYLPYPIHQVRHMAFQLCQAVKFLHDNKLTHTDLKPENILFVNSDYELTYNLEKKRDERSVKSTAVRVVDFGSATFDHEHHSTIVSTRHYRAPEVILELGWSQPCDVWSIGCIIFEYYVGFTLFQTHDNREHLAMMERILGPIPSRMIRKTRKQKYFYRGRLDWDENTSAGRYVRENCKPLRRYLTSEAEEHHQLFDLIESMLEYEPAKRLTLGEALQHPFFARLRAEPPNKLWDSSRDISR
Text: as §1, §2, §3, §4, §5

LIMK1(h) = LIMK1(h) (Homo sapiens, UniProt P53667)
Chain of LIMK1(h) (P53667 whole entry): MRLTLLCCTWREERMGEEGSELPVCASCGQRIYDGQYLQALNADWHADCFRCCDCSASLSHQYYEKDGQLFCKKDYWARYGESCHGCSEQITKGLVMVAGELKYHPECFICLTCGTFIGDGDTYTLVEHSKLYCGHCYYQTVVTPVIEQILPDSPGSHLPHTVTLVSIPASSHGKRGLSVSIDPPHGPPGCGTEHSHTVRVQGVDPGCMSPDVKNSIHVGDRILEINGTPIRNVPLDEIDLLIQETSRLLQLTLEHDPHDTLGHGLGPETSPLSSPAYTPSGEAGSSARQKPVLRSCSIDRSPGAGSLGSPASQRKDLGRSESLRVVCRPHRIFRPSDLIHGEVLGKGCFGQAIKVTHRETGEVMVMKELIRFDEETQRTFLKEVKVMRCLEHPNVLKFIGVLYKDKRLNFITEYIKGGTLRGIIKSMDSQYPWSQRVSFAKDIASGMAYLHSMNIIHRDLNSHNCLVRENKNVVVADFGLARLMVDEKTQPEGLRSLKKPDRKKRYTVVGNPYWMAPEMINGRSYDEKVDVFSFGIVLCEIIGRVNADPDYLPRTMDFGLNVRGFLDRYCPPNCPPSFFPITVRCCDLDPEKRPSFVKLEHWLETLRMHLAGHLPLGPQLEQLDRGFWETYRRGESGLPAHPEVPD
Text: as §1, §2, §3, §4, §5

SAPK3(h) = molecular target: T2, SAPK3(h) (Homo sapiens, UniProt P53778)
T2 sequence (P53778 1-367): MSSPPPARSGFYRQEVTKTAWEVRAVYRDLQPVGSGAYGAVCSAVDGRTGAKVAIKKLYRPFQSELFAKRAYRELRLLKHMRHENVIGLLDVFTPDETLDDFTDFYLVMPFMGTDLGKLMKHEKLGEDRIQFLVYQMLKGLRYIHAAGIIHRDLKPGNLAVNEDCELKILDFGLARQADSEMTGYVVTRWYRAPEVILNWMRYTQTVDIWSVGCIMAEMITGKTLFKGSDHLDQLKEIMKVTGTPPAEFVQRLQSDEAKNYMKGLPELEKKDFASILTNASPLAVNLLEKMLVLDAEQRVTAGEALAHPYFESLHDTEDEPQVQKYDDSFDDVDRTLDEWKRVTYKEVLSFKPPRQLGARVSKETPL
Text: as §1, §2, §3, §4, §5

SAPK4(h) = molecular target: T3, SAPK4(h) (Homo sapiens, UniProt O15264)
T3 sequence (O15264 1-365): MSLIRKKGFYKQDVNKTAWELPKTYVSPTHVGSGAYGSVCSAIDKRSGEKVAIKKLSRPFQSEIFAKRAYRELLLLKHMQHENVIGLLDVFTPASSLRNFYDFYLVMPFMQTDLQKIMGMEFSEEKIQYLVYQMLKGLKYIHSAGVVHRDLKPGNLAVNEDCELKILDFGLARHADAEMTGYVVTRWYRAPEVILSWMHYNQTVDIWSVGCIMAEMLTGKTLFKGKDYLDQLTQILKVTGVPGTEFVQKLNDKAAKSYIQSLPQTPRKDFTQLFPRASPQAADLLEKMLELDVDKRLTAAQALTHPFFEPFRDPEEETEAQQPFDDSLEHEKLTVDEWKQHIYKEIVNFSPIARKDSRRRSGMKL
Text: as §1, §2, §3, §4, §5

GSK3α(h) = GSK3α(h) (Homo sapiens, UniProt P49840)
Chain of GSK3α(h) (P49840 whole entry): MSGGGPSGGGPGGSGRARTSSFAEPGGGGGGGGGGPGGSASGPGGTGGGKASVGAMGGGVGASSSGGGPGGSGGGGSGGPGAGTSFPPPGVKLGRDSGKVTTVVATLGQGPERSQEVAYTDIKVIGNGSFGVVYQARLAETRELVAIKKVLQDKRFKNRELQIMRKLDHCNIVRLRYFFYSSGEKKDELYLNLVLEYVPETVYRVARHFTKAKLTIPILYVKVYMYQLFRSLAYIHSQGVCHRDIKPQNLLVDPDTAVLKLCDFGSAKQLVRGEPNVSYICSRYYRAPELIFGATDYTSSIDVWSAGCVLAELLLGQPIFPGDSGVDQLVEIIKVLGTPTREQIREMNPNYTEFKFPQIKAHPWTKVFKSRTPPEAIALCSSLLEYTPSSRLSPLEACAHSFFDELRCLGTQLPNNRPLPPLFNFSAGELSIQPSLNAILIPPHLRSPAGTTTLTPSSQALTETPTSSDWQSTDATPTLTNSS
Text: as §1, §2, §3, §4, §5

PKD2(h) = molecular target: T4, PKD2(h) (Homo sapiens, UniProt Q9BZL6)
T4 sequence (Q9BZL6 1-878): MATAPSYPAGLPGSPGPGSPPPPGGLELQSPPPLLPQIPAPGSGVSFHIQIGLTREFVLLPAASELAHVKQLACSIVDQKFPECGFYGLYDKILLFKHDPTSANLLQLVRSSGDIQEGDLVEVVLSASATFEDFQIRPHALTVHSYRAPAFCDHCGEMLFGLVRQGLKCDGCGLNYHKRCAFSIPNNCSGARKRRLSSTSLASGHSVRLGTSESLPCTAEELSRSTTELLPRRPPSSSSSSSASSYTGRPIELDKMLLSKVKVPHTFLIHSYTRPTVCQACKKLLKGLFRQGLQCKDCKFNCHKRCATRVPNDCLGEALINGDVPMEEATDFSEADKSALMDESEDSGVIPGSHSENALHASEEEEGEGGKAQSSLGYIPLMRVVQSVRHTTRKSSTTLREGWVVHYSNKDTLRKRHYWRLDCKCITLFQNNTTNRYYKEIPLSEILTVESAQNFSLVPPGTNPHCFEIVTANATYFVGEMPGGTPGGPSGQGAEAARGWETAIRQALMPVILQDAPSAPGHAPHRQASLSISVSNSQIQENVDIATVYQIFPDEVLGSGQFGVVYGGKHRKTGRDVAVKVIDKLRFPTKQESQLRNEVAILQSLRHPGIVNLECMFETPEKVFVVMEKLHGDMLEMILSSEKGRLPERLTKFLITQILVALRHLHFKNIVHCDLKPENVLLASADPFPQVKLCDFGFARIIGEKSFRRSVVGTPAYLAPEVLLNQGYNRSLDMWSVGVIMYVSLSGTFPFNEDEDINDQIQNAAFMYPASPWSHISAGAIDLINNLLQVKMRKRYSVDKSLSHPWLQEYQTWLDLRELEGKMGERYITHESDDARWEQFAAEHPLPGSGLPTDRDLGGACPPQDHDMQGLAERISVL
Text: as §1, §2, §3, §4, §5

Chain of MINK(h) (Q8N4C8 whole entry): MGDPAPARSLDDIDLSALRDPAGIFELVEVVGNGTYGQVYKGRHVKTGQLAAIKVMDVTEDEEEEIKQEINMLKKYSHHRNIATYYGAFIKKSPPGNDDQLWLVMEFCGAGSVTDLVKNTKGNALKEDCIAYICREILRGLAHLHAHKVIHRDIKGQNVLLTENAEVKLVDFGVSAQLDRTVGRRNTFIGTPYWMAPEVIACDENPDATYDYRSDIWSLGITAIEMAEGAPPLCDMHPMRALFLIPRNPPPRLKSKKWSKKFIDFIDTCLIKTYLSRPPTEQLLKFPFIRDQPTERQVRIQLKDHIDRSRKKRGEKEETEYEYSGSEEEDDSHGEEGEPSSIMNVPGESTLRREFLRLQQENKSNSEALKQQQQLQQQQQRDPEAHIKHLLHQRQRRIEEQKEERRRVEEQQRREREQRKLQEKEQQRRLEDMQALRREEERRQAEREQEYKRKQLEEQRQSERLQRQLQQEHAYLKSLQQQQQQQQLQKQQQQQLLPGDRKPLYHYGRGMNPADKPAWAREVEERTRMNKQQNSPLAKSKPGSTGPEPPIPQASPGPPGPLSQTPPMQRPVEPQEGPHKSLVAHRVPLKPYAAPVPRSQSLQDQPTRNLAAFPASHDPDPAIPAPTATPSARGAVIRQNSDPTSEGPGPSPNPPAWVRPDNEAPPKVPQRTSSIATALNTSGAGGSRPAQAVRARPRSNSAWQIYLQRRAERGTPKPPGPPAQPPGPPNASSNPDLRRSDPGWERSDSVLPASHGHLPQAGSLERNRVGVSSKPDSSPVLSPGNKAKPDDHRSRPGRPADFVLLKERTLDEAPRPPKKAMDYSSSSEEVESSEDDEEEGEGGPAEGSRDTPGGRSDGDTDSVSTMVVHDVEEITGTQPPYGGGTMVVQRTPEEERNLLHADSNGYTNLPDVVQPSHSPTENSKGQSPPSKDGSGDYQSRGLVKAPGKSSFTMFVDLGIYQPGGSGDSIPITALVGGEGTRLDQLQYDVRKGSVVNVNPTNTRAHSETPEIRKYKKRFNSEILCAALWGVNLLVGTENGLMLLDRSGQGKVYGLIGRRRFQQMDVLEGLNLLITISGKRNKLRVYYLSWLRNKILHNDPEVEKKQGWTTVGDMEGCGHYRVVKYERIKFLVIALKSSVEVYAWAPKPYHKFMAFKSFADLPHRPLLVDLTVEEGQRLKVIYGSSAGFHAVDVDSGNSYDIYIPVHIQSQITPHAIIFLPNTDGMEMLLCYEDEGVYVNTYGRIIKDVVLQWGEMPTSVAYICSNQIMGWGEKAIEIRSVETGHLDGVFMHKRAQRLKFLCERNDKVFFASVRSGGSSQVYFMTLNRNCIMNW

Row | inhibition at 1 µM (MINK(h)) | inhibition at 1 µM (IRAK1(h)) | inhibition at 1 µM (CaMKIδ(h)) | inhibition at 1 µM (Ret(h)) | inhibition at 1 µM (MKK7β(h)) | inhibition at 1 µM (CLK2(h)) | inhibition at 1 µM (LIMK1(h)) | inhibition at 1 µM (SAPK3(h)) | inhibition at 1 µM (SAPK4(h)) | inhibition at 1 µM (GSK3α(h)) | inhibition at 1 µM (PKD2(h)) | Compound
1 | 92% | 89% | -8% | 52% | 80% | 97% | 58% | 99% | 87% | 95% | 8% | Nc1n[nH]c2ccc(-c3ccnc4[nH]c(-c5ccccc5)cc34)cc12 [Compound 4]
2 | 51% | 42% | 9% | 41% | 99% | 80% | 21% | 49% | 18% | 74% | -1% | Nc1n[nH]c2ccc(-c3ccnc4[nH]c(-c5cccc(OCc6ccccc6)c5)cc34)cc12 [Compound 5r [SU1261]]
3 | 41% | 37% | 24% | -3% | 11% | 68% | 15% | 44% | 10% | 27% | -5% | Nc1n[nH]c2ccc(-c3ccnc4[nH]c(-c5ccnc(OCc6ccccc6)c5)cc34)cc12 [Compound 6g [SU1349]]
